Experimental data from PubChem BioAssay AID248 (DTP/NCI, 2004).
Inconclusive results and toxic doses are left out. No stated cut-off is given here; in the data, active means T/C of 150% or more; inactive means T/C below 125%.

Tested on: L1210 leukemia ip in BDF1 mice, survival T/C
Experiment: NCI In Vivo Anticancer Drug Screen. Data for tumor model L1210 Leukemia (intraperitoneal) in B6D2F1 (BDF1) mice
Conditions: endpoint: mean survival time, higher = longer survival
In short: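 Transplantable tumor model; survival measured in treated vs vehicle control mice. Value = treated/control.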

Measured: T/C

CCCC1OCC(C)C(C)O1 (stereo not drawn)
inactive: dose: 50.0 mg/kg/injection, schedule: Q01DX009 (ip), vehicle: acetone 101 % of control | dose: 100.0 mg/kg/injection, schedule: Q01DX009 (ip), vehicle: acetone 98 % of control | dose: 100.0 mg/kg/injection, schedule: Q04DX003 (ip), vehicle: acetone 106 % of control | dose: 200.0 mg/kg/injection, schedule: Q01DX009 (ip), vehicle: acetone 112 % of control | dose: 200.0 mg/kg/injection, schedule: Q04DX003 (ip), vehicle: acetone 109 % of control | dose: 400.0 mg/kg/injection, schedule: Q04DX003 (ip), vehicle: acetone 123 % of control

CCOP(=O)(OCC)O/N=C(/c1ccccc1)C(C)C
inactive: dose: 5.0 mg/kg/injection, schedule: Q01DX001 (ip), vehicle: saline 98 % of control | dose: 10.0 mg/kg/injection, schedule: Q01DX001 (ip), vehicle: saline 98 % of control | dose: 20.0 mg/kg/injection, schedule: Q01DX001 (ip), vehicle: saline 93 % of control | dose: 40.0 mg/kg/injection, schedule: Q01DX001 (ip), vehicle: saline 100 % of control

Cc1cc(O)c(C)c2c1CC[C@H]1[C@@H]2OC(=O)[C@@H]1C
inactive: dose: 100.0 mg/kg/injection, schedule: Q01DX001 (ip), vehicle: other 98 % of control | dose: 200.0 mg/kg/injection, schedule: Q01DX001 (ip), vehicle: other 92 % of control | dose: 400.0 mg/kg/injection, schedule: Q01DX001 (ip), vehicle: other 97 % of control

CC(=O)Nc1ccc(N=C/C=C/c2ccccc2)cc1
inactive: dose: 100.0 mg/kg/injection, schedule: Q01DX001 (ip), vehicle: saline 93 % of control | dose: 200.0 mg/kg/injection, schedule: Q01DX001 (ip), vehicle: saline 94 % of control | dose: 400.0 mg/kg/injection, schedule: Q01DX001 (ip), vehicle: saline 98 % of control

Cc1[nH]nc2c(=O)[nH]c3ccccc3c12
inactive: dose: 18.75 mg/kg/injection, schedule: Q01DX001 (ip), vehicle: Klucel (hydroxypropylcellulose) (HPC) 89 % of control | dose: 37.5 mg/kg/injection, schedule: Q01DX001 (ip), vehicle: Klucel (hydroxypropylcellulose) (HPC) 86 % of control

CC(=O)CC(C)=Nc1cccc(N=C(C)CC(C)=O)c1
inactive: dose: 87.5 mg/kg/injection, schedule: Q04DX003 (ip), vehicle: saline with Tween-80 93 % of control | dose: 175.0 mg/kg/injection, schedule: Q04DX003 (ip), vehicle: saline with Tween-80 93 % of control | dose: 350.0 mg/kg/injection, schedule: Q04DX003 (ip), vehicle: saline with Tween-80 93 % of control

CS(=O)CCCC(=O)O (stereo not drawn)
inactive: dose: 100.0 mg/kg/injection, schedule: Q01DX001 (ip), vehicle: saline with Tween-80 102 % of control | dose: 200.0 mg/kg/injection, schedule: Q01DX001 (ip), vehicle: saline with Tween-80 94 % of control | dose: 400.0 mg/kg/injection, schedule: Q01DX001 (ip), vehicle: saline with Tween-80 97 % of control

CC1/C(=N\O)CC2C3(C)CCC2(C(C)C(=O)O)C(=O)C13 (stereo not drawn)
inactive: dose: 100.0 mg/kg/injection, schedule: Q01DX001 (ip), vehicle: Klucel (hydroxypropylcellulose) (HPC) 100 % of control | dose: 200.0 mg/kg/injection, schedule: Q01DX001 (ip), vehicle: Klucel (hydroxypropylcellulose) (HPC) 100 % of control | dose: 400.0 mg/kg/injection, schedule: Q01DX001 (ip), vehicle: Klucel (hydroxypropylcellulose) (HPC) 92 % of control

O=C(O)CCC(=O)Nc1ccccc1
inactive: dose: 100.0 mg/kg/injection, schedule: Q04DX003 (ip), vehicle: Klucel (hydroxypropylcellulose) (HPC) 95 % of control | dose: 200.0 mg/kg/injection, schedule: Q04DX003 (ip), vehicle: Klucel (hydroxypropylcellulose) (HPC) 97 % of control | dose: 400.0 mg/kg/injection, schedule: Q04DX003 (ip), vehicle: Klucel (hydroxypropylcellulose) (HPC) 101 % of control

COC(=O)c1cn2ccc(C#N)cc2c1C(=O)OC
inactive: dose: 100.0 mg/kg/injection, schedule: Q04DX002 (ip), vehicle: saline with Tween-80 89 % of control | dose: 200.0 mg/kg/injection, schedule: Q04DX002 (ip), vehicle: saline with Tween-80 95 % of control | dose: 400.0 mg/kg/injection, schedule: Q04DX002 (ip), vehicle: saline with Tween-80 95 % of control

CC1CC=CC(N2C(=O)c3ccccc3C2=O)C1 (stereo not drawn)
inactive: dose: 200.0 mg/kg/injection, schedule: Q01DX001 (ip), vehicle: carboxymethylcellulose (CMC) 91 % of control | dose: 400.0 mg/kg/injection, schedule: Q01DX001 (ip), vehicle: carboxymethylcellulose (CMC) 93 % of control

COc1cc(-c2ccc(NC(=O)Nc3ccc(C4=NCCN4)cc3)c(OC)c2)ccc1NC(=O)Nc1ccc(C2=NCCN2)cc1
inactive: dose: 15.0 mg/kg/injection, schedule: Q01DX Z (ip), vehicle: carboxymethylcellulose (CMC) 104 % of control | dose: 31.0 mg/kg/injection, schedule: Q01DX Z (ip), vehicle: carboxymethylcellulose (CMC) 98 % of control | dose: 62.5 mg/kg/injection, schedule: Q01DX Z (ip), vehicle: carboxymethylcellulose (CMC) 117 % of control | dose: 125.0 mg/kg/injection, schedule: Q01DX Z (ip), vehicle: carboxymethylcellulose (CMC) 103 % of control | dose: 250.0 mg/kg/injection, schedule: Q01DX Z (ip), vehicle: water 117 % of control | dose: 500.0 mg/kg/injection, schedule: Q01DX Z (ip), vehicle: water 87 % of control

N#CCCCC1(CCCC#N)OCCO1
inactive: dose: 25.0 mg/kg/injection, schedule: Q01DX009 (ip), vehicle: saline 94 % of control | dose: 50.0 mg/kg/injection, schedule: Q01DX009 (ip), vehicle: saline 100 % of control
